Source: patent US8901118B2, “Compounds and methods for kinase modulation, and indications therefor” (Plexxikon Inc., priority 2010, dated 2014)

Tests used:
Fms kinase = Fms kinase (Homo sapiens, UniProt P07333); assay: Fms kinase biochemical activity assay (AlphaScreen, biotin-(E4Y)10 phosphorylation); conditions: 100 μM ATP; read-out: Biochemical Inhibition IC50 Fms
Procedure, shortened: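 Fms kinase (1 ng/well) phosphorylating 30 nM biotin-(E4Y)10 with 100 μM ATP in 25 mM Hepes pH 7.5, MgCl2/MnCl2, 5% DMSO, 20 min at 30 °C. Phosphotyrosine detected by AlphaScreen streptavidin donor and PY20 acceptor beads; IC50 from signal versus compound concentration.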

Flt-3 kinase = target: T1, Flt-3 kinase (Homo sapiens, UniProt P36888); assay: Flt-3 kinase biochemical activity assay (AlphaScreen); conditions: 100 μM ATP; read-out: Biochemical Inhibition IC50 Flt3
T1 sequence (P36888 27-993): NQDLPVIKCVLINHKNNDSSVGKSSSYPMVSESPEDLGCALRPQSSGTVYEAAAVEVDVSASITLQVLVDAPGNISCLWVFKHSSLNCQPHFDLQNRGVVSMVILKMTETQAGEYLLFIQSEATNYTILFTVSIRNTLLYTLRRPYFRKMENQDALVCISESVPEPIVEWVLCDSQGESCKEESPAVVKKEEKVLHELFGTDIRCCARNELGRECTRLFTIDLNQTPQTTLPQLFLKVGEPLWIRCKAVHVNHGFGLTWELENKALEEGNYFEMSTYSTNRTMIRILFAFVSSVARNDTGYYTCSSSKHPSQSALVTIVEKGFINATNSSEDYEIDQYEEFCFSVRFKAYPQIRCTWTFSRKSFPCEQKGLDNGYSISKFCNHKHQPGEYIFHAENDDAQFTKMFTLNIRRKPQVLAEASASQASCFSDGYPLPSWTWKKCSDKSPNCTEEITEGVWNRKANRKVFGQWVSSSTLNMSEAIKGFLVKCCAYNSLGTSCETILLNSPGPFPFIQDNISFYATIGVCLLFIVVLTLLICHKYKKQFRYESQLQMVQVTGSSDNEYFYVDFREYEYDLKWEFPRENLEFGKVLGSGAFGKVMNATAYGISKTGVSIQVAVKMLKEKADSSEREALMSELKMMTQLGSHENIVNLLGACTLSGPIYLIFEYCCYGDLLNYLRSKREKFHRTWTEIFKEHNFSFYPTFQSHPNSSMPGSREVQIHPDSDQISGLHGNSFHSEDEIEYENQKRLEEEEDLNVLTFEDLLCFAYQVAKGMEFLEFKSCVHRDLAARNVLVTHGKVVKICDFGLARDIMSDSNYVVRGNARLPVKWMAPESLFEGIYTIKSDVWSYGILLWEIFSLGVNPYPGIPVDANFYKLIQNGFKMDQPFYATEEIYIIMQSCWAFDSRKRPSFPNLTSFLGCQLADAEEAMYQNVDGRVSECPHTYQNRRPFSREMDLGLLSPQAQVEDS
Procedure, shortened: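 Recombinant kinase (1 ng/well) phosphorylated 30 nM biotin-(E4Y)10 with 100 μM ATP in Hepes pH 7.5 buffer with Mg/Mn, 5% DMSO, for 1 h at room temperature. EDTA-containing AlphaScreen streptavidin donor/PY20 acceptor beads detected phosphotyrosine; IC50 was derived from signal versus concentration.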

Sequence of Fms kinase (P07333 20-972): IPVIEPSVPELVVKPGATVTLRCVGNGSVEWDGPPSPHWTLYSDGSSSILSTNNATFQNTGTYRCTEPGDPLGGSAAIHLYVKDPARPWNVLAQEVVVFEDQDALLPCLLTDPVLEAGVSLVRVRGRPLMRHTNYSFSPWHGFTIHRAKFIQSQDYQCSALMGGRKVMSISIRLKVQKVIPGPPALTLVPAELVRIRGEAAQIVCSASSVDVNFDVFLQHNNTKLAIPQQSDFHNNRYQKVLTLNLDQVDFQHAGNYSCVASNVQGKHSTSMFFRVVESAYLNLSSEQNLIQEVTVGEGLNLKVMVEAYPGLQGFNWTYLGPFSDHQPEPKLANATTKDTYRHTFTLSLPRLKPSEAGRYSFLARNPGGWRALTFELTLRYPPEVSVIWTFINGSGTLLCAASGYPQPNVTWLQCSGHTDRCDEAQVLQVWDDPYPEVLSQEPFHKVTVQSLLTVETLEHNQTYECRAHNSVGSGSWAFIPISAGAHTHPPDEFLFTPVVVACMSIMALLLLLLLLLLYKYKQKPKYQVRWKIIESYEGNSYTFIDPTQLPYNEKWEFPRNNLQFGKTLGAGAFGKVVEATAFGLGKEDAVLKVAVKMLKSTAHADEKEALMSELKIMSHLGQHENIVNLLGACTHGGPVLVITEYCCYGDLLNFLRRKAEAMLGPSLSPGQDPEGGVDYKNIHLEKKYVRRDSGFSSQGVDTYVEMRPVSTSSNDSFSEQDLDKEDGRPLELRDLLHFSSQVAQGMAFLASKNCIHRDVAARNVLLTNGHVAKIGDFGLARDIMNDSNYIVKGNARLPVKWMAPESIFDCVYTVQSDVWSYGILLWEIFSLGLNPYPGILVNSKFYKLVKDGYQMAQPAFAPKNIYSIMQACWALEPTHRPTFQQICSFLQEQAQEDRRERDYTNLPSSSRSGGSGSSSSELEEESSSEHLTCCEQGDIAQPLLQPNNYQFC

Structure (SMILES) | IC50 (Fms kinase) | IC50 (Flt-3 kinase)
CCc1ccc(Nc2ccc(Cc3c[nH]c4ncnc(C5CC5)c34)c(F)n2)cn1 [Compound P-4028, [5-(4-Cyclopropyl-7H-pyrrolo[2,3-d]pyrimidin-5-ylmethyl)-6-fluoro-pyridin-2-yl]-(6-ethyl-pyridin-3-yl)-amine] | < 10 nM | < 100 nM
CCc1ccc(Nc2ccc(C(=O)c3c[nH]c4ncnc(C5CC5)c34)c(F)n2)cn1 [Compound P-4029, (4-Cyclopropyl-7H-pyrrolo[2,3-d]pyrimidin-5-yl)-[6-(6-ethyl-pyridin-3-ylamino)-2-fluoro-pyridin-3-yl]-methanone] | < 10 nM | < 10 nM
Cc1ccc(Nc2ccc(Cc3c[nH]c4ncnc(C5CC5)c34)c(F)n2)cn1 [Compound P-4030, [5-(4-Cyclopropyl-7H-pyrrolo[2,3-d]pyrimidin-5-ylmethyl)-6-fluoro-pyridin-2-yl]-(6-methyl-pyridin-3-yl)-amine] | < 10 nM | < 1000 nM
Cc1ccc(Nc2ccc(C(=O)c3c[nH]c4ncnc(C5CC5)c34)c(F)n2)cn1 [Compound P-4031, (4-Cyclopropyl-7H-pyrrolo[2,3-d]pyrimidin-5-yl)-[2-fluoro-6-(6-methyl-pyridin-3-ylamino)-pyridin-3-yl]-methanone] | < 100 nM | < 100 nM
CCOc1ccc(Nc2ccc(C(=O)c3c[nH]c4ncnc(C)c34)c(F)n2)cn1 [Compound P-4032, [6-(6-Ethoxy-pyridin-3-ylamino)-2-fluoro-pyridin-3-yl]-(4-methyl-7H-pyrrolo[2,3-d]pyrimidin-5-yl)-methanone] | < 100 nM | < 100 nM
CCn1cc(Nc2ccc(Cc3c[nH]c4ncnc(C5CC5)c34)c(F)n2)cn1 [Compound P-4036, [5-(4-Cyclopropyl-7H-pyrrolo[2,3-d]pyrimidin-5-ylmethyl)-6-fluoro-pyridin-2-yl]-(1-ethyl-1H-pyrazol-4-yl)-amine] | < 10 nM | > 1000 nM
CCn1cc(Nc2ccc(C(=O)c3c[nH]c4ncnc(C5CC5)c34)c(F)n2)cn1 [Compound P-4037, (4-Cyclopropyl-7H-pyrrolo[2,3-d]pyrimidin-5-yl)-[6-(1-ethyl-1H-pyrazol-4-ylamino)-2-fluoro-pyridin-3-yl]-methanone] | < 100 nM | < 1000 nM
